Test results: paper PMC8512812, “Clerodane Diterpenoids from an Edible Plant Justicia insularis: Discovery, Cytotoxicity, and Apoptosis Induction in Human Ovarian Cancer Cells” (Molecules, 2021)
Like-named read-outs stand apart in the source and are kept apart here.

Experiments:
[1] = system: caspase 3/7 in OVCAR-4 cells; test: Caspase-Glo 3/7 activity assay; type: cell-based, human; conditions: 10, 20 and/or 30 μM, 48 h, vs control, one-way ANOVA
Description: (§1) Caspase 3/7 activities was measured using assay kits caspase-Glo 3/7 (Promega Corp., Madison, WI, USA) on a 96-well microplate. Briefly, the cells (OVCAR-4 and OVCAR-8) were seeded in 96 well plates at a cell density of 5000 cells/well in 80 μL growth media and exposed to 10, 20 and/or 30 μM of the natural compounds after 24 h incubation. After 48 h exposure to compound treatments, 25 μL of Caspase 3/7 Glo-reagent was added, and the cells were incubated in the dark at room temperature for 30 min on a gentle rocker. The luminescence was measured at […] by a BioTEK Synergy microplate reader (USA). A similar procedure was followed for caspase 8 and caspase 9 activity.

[2] = system: caspase 3/7 in OVCAR-8 cells; test: Caspase-Glo 3/7 activity assay; type: cell-based, human; conditions: 10, 20 and/or 30 μM, 48 h, vs control, one-way ANOVA
Description: as §1

[3] = system: OVCAR-4 and OVCAR-8 cells; test: SRB cell growth assay, result stated jointly for both cancer lines; type: cell-based, human; conditions: span over the two cell lines, read-out: IC50 against OVCAR-4 and OVCAR-8 cells
Description: (§2) The human ovarian cancer cell lines and normal human ovarian surface epithelial (HOE) cells were used in this study. Ovarian cancer cell lines (OVCAR-4 and OVCAR-8) were products of American tissue culture collection (ATCC). The HOE cells were purchased from Applied Biological Materials (ABM) Inc. (Vancouver, BC, Canada). The Rosewell Park Memorial Institute (RPMI 1640, Lonza) medium was used in the culturing of OVCAR-4, OVCAR-8, and HOE cells. The medium was supplemented with 2 mM glutamine, 10% foetal bovine serum (FBS), and 50 µg/mL penicillin streptomycin. These cells were incubated in a standard humidified incubator) at 37 °C, 5% carbon dioxide (CO2) conditions.
(§3) Sulforhodamine B (SRB) assay was used to determine the inhibition of cell proliferation by the studied compounds and plant extracts. Plant extracts/fractions (100 mg/mL) and pure compounds (20 mM) were prepared in DMSO. The 0.2% DMSO in growth media was added to the cells as vehicle-treated cells (negative control) while carboplatin was used as positive control. In the SRB assay, OVCAR-4, OVCAR-8, and HOE cells were seeded in 80 µL growth medium per each well in 96 well plates. OVCAR-4 and HOE were seeded at a density of 5000 cells per well while OVCAR-8 was seeded at a density of 2000 cells per well. The seeded plates were incubated for 24 h, after which 20 μL of plant extracts and natural compounds 1000 µg/mL and 200 µM (and their serial two-fold dilutions), respectively, were added at the indicated concentrations. The cell cultures were incubated at 37 °C under 5% CO2 for 72 h in a humidified atmosphere.
(§4) After 72 h, the medium was decanted, and the cells fixed with 0.1 mL of 10% TCA on ice for 30 min before drying. The cells were stained with 0.4% SRB, washed with 1% acetic acid three times and dried. Then, 0.1 mL of Tris-base (10 mM) was added to the plates to solubilise the protein-bound SRB dye. The absorbance at 570 nm was measured using a spectroscopic plate reader (Multi-mode microplate reader BioTEK Synergy 2, Winooski, VT, USA). The data were analysed by non-linear regression to fit a 4-parameter sigmoidal dose–response curve to determine IC50 values using GraphPad PRISM 6.0 software, Inc. (San Diego, CA, USA).
(§5) The IC50s were obtained from at least three repeated experiments. The mean IC50 was calculated, and the standard error of mean (SEM) was determined. Furthermore, a one way analysis of variance (ANOVA) and student t test were used to test if the difference in the mean of control and treatments and mean of treatment at different concentration were significant. A post hoc Dunnett test was used to determine which of the treatments was significant to the control while a Tukey test was used to determine which of the concentrations of a particular treatment were significant using GraphPad prism 6.

[4] = system: OVCAR-4 cells; test: Sulforhodamine B (SRB) cell growth inhibitory assay; type: cell-based, human
Description: as §2, §3, §4, §5

[5] = system: OVCAR-8 cells; test: as above; type: cell-based, human; conditions: for SI against OVCAR-8: ratio of IC50 against HOE cells to IC50 against OVCAR-8
Description: as §2, §3, §4, §5

[6] = system: HOE cells (normal human ovarian surface epithelial); test: as above; type: cell-based; conditions: for IC50: SRB, 72 h; for cytotoxic activity against HOE cells: compared with OVCAR-4 and OVCAR-8
Description: as §2, §3, §4, §5

[7] = system: Hela cells; design: method as in PMID 32213364; conditions: from the leaves of Casearia kurzii; read-out: IC50 against Hela cells; cited from earlier work
[8] = system: caspase 8 in OVCAR-8 cells; test: Caspase-Glo 8 activity assay; type: cell-based, human
Description: as §1

[9] = Thermal stability (GC-MS conditions; heating followed by HPLC); type: physicochemical
Description: Briefly, 1.0–2.0 mg of the bioactive fractions and isolated compounds of J. insularis were dissolved in 200 μL of ethyl acetate and sonicated at <40 °C for 5 min. 1–2 μL of the solution was subsequently injected into gas chromatography mass spectrometry (GC-MS) system consisting of an Agilent 7890 coupled to Agilent MS model 5975C MSD (Agilent Technologies, Cold Spring, NY, USA). The gas chromatography started at 60 °C for 2 min and increased to 300 °C at the rate of 10 °C/min, which was held at 300 °C for 4 min at a constant helium pressure (10 psi). The mass spectra data were acquired in the scan mode in m/z range 40–1000.
The molecular formula of 1 was determined as C20H30O3 based on the observed molar mass of compound 1 (found, 318.2123 Da) by LC-HR-MS (Figure S4). […] The other observed compounds, 1a and 1b (Figure S5), were determined to be the thermal degradation products of compound 1 due to the presence of a γ–hydroxy unsaturated 5-membered lactone moiety (Figure 1) under high temperature conditions (60 °C–300 °C) for 30 min of GC-MS. […] Furthermore, the percentage of compound 1 in organic extracts was determined to be 34%. Thus, the composition of compound 1 in the plant material is 0.7% (dry weight), a very abundant secondary metabolite in the leave of J. insularis.

[10] = system: caspase 9 in OVCAR-8 cells; test: Caspase-Glo 9 activity assay; type: cell-based, human
Description: as §1

[11] = system: OVCAR-8 cells; test: Annexin V-FITC / propidium iodide flow cytometry; type: cell-based, human; conditions: 5, 10, and 20 µM, 48 h treatment
Description: The in vitro method of fluorescence-activated cell sorting (FACS) by Annexin V and propidium iodide (PI) staining was used to detect the change of cell population as reported. OVCAR-8 cells were seeded in 12 well plates at a density of 2 × 10^5 cells per well in 1 mL of growth media and incubated for 24 h before treatment with the tested compound and positive control. After treatment for 48 h, media were decanted into 15 mL tubes, and cell pellets were collected into the same tubes by trypsinisation, the cells were centrifuged at 150× g for 3 min and re-suspended into 1 mL growth media, which was transferred into sterile 2 mL Eppendorf tube, centrifuged at 300× g for 5 min at 4 °C. The media were aspirated, and the pellet was washed in cold PBS. The cells were centrifuged under the same conditions and the supernatant aspirated. Cells were washed in 500 µL annexin-V binding buffer and centrifuged at 300× g for 10 min, annexin-V binding buffer was aspirated, and the cell pellet was treated with 10 µL of annexin V-FITC in 100 µL of binding buffer. The cells were thoroughly mixed and incubated in the dark at room temperature for 15 min. After incubation, cells were washed in binding buffer and centrifuged at 300× g for 10 min. The buffer was aspirated, and cells were suspended in 500 µL binding buffer and subsequently 5 µL of PI was added for flow cytometry analysis.

[12] = Homo sapiens, OVCAR-4, 72 h, mean ± SEM, read-out: growth inhibitory activity, IC50, OVCAR-4
[13] = Homo sapiens, OVCAR-4, 72 h, same IC50 given in μg/mL, read-out: growth inhibitory activity, IC50, OVCAR-4, in parentheses (converted)
[14] = Homo sapiens, OVCAR-8, SRB, 72 h, mean ± SEM, read-out: growth inhibitory activity, IC50, OVCAR-8
[15] = Homo sapiens, OVCAR-8, SRB, 72 h, same IC50 given in μg/mL, read-out: growth inhibitory activity, IC50, OVCAR-8, in parentheses (converted)
[16] = Homo sapiens, mean ± SEM, read-out: growth inhibitory activity, IC50, HOE
[17] = Homo sapiens, same IC50 given in μg/mL, read-out: growth inhibitory activity, IC50, HOE, in parentheses (converted)

Molecule	caspase 3/7 activities [1]	caspase 3/7 activities [2]	IC50 ([3]; Homo sapiens) [µM]	IC50 [4, 12] [µM]	IC50 [4, 13] [µg/mL]	IC50 [5, 14] [µM]	IC50 [5, 15] [µg/mL]	SI against OVCAR-8 [5]	IC50 [6, 16] [µM]	IC50 [6, 17] [µg/mL]	cytotoxic activity against HOE cells [6]	IC50 [3] [µM]	also measured
CC1=CCC[C@@H]2[C@@](C)(CC/C(C=O)=C\C(=O)O)[C@H](C)CC[C@@]12C [Compound 2, 16-oxo-cleroda-3,13(14)E-dien-15-oic acid]	significantly increased	significantly increased	12 to 17	16.6 ± 2.8	5.3	11.8 ± 0.5	3.8	2	22.8 ± 0.7	7.3	less cytotoxic activity	–	–
Kurzipene B	–	–	–	–	–	–	–	–	–	–	–	–	IC50 [7]: 5.3 µM
N.N.O=C([O-])C1(C(=O)[O-])CCC1.[Pt+2] [Carboplatin, carboplatin, reference compound]	–	–	–	–	–	–	–	1.6	–	–	–	8 to 18	IC50 ([4]; 72 h, mean ± SEM, read-out: growth inhibitory activity, IC50, OVCAR-4): 17.6 ± 4.6 µM; IC50 ([5]; SRB, 72 h, mean ± SEM, read-out: growth inhibitory activity, IC50, OVCAR-8): 8.2 ± 2.2 µM; IC50 ([6]; mean ± SEM, read-out: growth inhibitory activity, IC50, HOE): 13 ± 3.7 µM
CC1=CCC[C@@H]2[C@@](C)(CCC3=CC(=O)OC3O)[C@H](C)CC[C@@]12C (mixture of isomers) [Compound 1, 16(α/β)-hydroxy-cleroda-3,13(14)Z-dien-15,16-olide]	significantly increased	significantly increased	4 to 6	5.7 ± 0.3	1.8	4.4 ± 0.2	1.4	3	12.1 ± 0.1	3.9	less cytotoxic activity	< 6	caspase 8 activity [8]: increased; thermal stability, HPLC after heating ([9]; 200 °C for 0.5 h followed by HPLC analysis): formation of new products; thermal stability ([9]; at a high temperature): thermally unstable; caspase 9 activity [10]: increased; percentage of early and late apoptosis [11]: concentration-dependent and significant increase; IC50 ([5]; Homo sapiens, OVCAR-8, Figure S1 scheme, read-out: IC50 in OVCAR-8 (Figure S1)): 1.42 µg/mL
